Biological target: T1, pY705-STAT3 in PBMC (Homo sapiens, UniProt P40763)
T1 construct: Cryopreserved Peripheral Blood Mononuclear Cells (PBMC) are from AllCells; host or cells: cryopreserved PBMC
Assay: MSD-pSTAT-PBMC Assay (pSTAT3, IL-6 stimulated)
Assay type: cell-based
Conditions: PBMC, compound 3 hrs, then 10 ng/mL IL-6 for 10 min; Table 115; read-out: STAT3
Procedure, shortened: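 Inhibition of cytokine-induced STAT phosphorylation was measured in recovered human PBMC after 3 hrs compound exposure and a 10 min IL-4 (1 ng/mL) or IL-6 (10 ng/mL) challenge. MSD detection of pY641-STAT6 or pY705-STAT3 yielded IC50 values.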

T1 sequence (P40763 whole entry): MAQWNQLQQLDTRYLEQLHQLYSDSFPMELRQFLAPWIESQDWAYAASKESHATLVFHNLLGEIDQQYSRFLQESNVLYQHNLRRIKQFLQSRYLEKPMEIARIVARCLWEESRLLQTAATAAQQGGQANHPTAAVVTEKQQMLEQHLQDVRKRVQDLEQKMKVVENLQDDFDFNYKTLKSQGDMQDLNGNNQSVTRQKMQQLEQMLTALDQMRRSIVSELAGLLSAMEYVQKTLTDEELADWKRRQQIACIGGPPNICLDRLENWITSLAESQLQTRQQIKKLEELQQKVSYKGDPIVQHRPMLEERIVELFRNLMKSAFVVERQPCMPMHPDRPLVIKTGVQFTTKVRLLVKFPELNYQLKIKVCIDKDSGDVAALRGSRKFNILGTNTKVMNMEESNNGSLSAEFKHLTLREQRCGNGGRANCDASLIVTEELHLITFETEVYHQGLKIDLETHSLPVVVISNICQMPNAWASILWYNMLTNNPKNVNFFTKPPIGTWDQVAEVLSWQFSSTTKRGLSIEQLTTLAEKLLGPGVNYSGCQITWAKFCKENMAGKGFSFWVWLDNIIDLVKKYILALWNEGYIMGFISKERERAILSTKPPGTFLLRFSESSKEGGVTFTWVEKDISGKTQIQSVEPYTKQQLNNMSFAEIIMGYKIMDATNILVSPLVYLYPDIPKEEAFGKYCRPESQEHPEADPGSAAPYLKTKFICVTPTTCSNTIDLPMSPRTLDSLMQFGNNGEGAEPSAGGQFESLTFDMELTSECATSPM

SMILES | IC50 [µM]
CCCOC(=O)[C@H](C)NP(=O)(Cc1ccc2sc(C(=O)N[C@H]3CCC[C@H]4CC[C@@H](C(=O)N5CC(c6c(OC)ccnc6F)C5)N4C3=O)cc2c1)Oc1ccccc1 (stereo partly drawn) [Compound 980, propyl (((2-(((3S,6S,9aS)-3-(3-(2-fluoro-4-methoxypyridin-3-yl)azetidine-1-carbonyl)-5-oxooctahydro-1H-pyrrolo[1,2-a]azepin-6-yl)carbamoyl)benzo [b]thiophen-5-yl)methyl)(phenoxy)phosphoryl)-L-alaninate] | 1 to 3
CCCOC(=O)[C@H](C)NP(=O)(Oc1ccccc1)C(F)c1ccc2sc(C(=O)N[C@H]3CCCC[C@H]4CC[C@@H](C(=O)NCc5cnc6[nH]cnc6c5)N4C3=O)cc2c1 (stereo partly drawn) [Compound 265, propyl (((2-(((3S,6S,10aS)-3-(((3H-imidazo[4,5-b]pyridin-6-yl)methyl)carbamoyl)-5-oxodecahydropyrrolo [1,2-a]azocin-6-yl)carbamoyl)benzo [b]thiophen-5-yl)fluoromethyl) (phenoxy)phosphoryl)-L-alaninate] | 0.1 to 1
CC(C)CC(=O)SCCOP(=O)(Cc1ccc2sc(C(=O)N[C@H]3CCC[C@H]4CC[C@@H](C(=O)N5CC(c6cccnc6)C5)N4C3=O)cc2c1)OCCSC(=O)CC(C)C [Compound 1084, S,S′-(((((2-(((3S,6S,9aS)-5-oxo-3-(3-(pyridin-3-yl)azetidine-1-carbonyl)octahydro-1H-pyrrolo[1,2-a]azepin-6-yl)carbamoyl)benzo [b]thiophen-5-yl)methyl)phosphoryl)bis(oxy))bis(ethane-2,1-diyl)) bis(3-methylbutanethioate)] | 0.1 to 1
CCCOC(=O)[C@H](C)NP(=O)(Cc1ccc2sc(C(=O)N[C@H]3CCC[C@H]4CC[C@@H](C(=O)N5CC(c6cncnc6N6CCC6)C5)N4C3=O)cc2c1)Oc1ccccc1 (stereo partly drawn) [Compound 1019, propyl (((2-(((3S,6S,9aS)-3-(3-(4-(azetidin-1-yl)pyrimidin-5-yl)azetidine-1-carbonyl)-5-oxooctahydro-1H-pyrrolo[1,2-a]azepin-6-yl)carbamoyl)benzo [b]thiophen-5-yl)methyl)(phenoxy)phosphoryl)-L-alaninate] | < 0.1
CC(C)CC(=O)SCCOP(=O)(OCOC(=O)O[C@@H]1CCOC1)C(F)(F)c1ccc2sc(C(=O)N[C@H]3CCC[C@H]4CC[C@@H](C(=O)N5CC(c6ncccn6)C5)N4C3=O)cc2c1 (stereo partly drawn) [Compound 1098, S-(2-(((difluoro(2-(((3S,6S,9aS)-5-oxo-3-(3-(pyrimidin-2-yl)azetidine-1-carbonyl)octahydro-1H-pyrrolo[1,2-a]azepin-6-yl)carbamoyl)benzo [b]thiophen-5-yl)methyl)((((((R)-tetrahydrofuran-3-yl)oxy)carbonyl)oxy)methoxy)phosphoryl)oxy)ethyl) 3-methylbutanethioate] | < 0.1
CCCOC(=O)[C@H](C)NP(=O)(Cc1ccc2sc(C(=O)N[C@H]3CC[C@@H](C)C[C@H]4CC[C@@H](C(=O)N5CC(c6cnccc6C)C5)N4C3=O)cc2c1)Oc1ccccc1 (stereo partly drawn) [Compound 287, propyl (((2-(((3S,6S,9R,10aR)-9-methyl-3-(3-(4-methylpyridin-3-yl)azetidine-1-carbonyl)-5-oxodecahydropyrrolo [1,2-a]azocin-6-yl)carbamoyl)benzo [b]thiophen-5-yl)methyl)(phenoxy)phosphoryl)-L-alaninate] | < 0.1
CCOC(=O)[C@H](C)NP(=O)(Cc1ccc2sc(C(=O)N[C@H]3CCC[C@H]4CC[C@@H](C(=O)N5CC(c6cccnc6)C5)N4C3=O)cc2c1)Oc1ccccc1 (stereo partly drawn) [Compound 422, ethyl (((2-(((3S,6S,9aS)-5-oxo-3-(3-(pyridin-3-yl)azetidine-1-carbonyl)octahydro-1H-pyrrolo[1,2-a]azepin-6-yl)carbamoyl)benzo [b]thiophen-5-yl)methyl)(phenoxy)phosphoryl)-L-alaninate] | < 0.1
CCCOC(=O)[C@H](C)N[P@@](=O)(Oc1ccccc1)[C@H](F)c1ccc2sc(C(=O)N[C@H]3CCC[C@H]4CC[C@@H](C(=O)N5CC(c6cccnc6)C5)N4C3=O)cc2c1 (single isomer, unassigned) [Compound 463] | < 0.1
CCCCOC(=O)[C@H](C)N(C)P(=O)(Oc1ccccc1)C(F)(F)c1ccc2sc(C(=O)N[C@H]3CCC[C@H]4CC[C@@H](C(=O)N5CC(c6cccnc6)C5)N4C3=O)cc2c1 (stereo partly drawn) [Compound 285, butyl N-((difluoro(2-(((3S,6S,9aS)-5-oxo-3-(3-(pyridin-3-yl)azetidine-1-carbonyl)octahydro-1H-pyrrolo[1,2-a]azepin-6-yl)carbamoyl)benzo [b]thiophen-5-yl)methyl)(phenoxy)phosphoryl)-N-methyl-L-alaninate] | > 3
CCCOC(=O)[C@H](C)NP(=O)(Oc1ccccc1)[C@@H](F)c1ccc2sc(C(=O)N[C@H]3CCC[C@H]4CC[C@@H](C(=O)N5CC(c6cncc(F)c6OC)C5)N4C3=O)cc2c1 (stereo partly drawn) [Compound 1073, propyl (((R)-fluoro(2-(((3S,6S,9aS)-3-(3-(5-fluoro-4-methoxypyridin-3-yl)azetidine-1-carbonyl)-5-oxooctahydro-1H-pyrrolo[1,2-a]azepin-6-yl)carbamoyl)benzo [b]thiophen-5-yl)methyl)(phenoxy)phosphoryl)-L-alaninate] | 0.1 to 1
Cc1ccncc1C1CN(C(=O)[C@@H]2CC[C@@H]3CCCC[C@H](NC(=O)c4cc5cc(CP(=O)(N[C@@H](C)C(=O)OCC(C)C)Oc6ccccc6)ccc5s4)C(=O)N32)C1 (stereo partly drawn) [Compound 282, isobutyl (((2-(((3S,6S,10aS)-3-(3-(4-methylpyridin-3-yl)azetidine-1-carbonyl)-5-oxodecahydropyrrolo [1,2-a]azocin-6-yl)carbamoyl)benzo [b]thiophen-5-yl)methyl)(phenoxy)phosphoryl)-L-alaninate] | < 0.1
CCCOC(=O)[C@H](C)N[P@@](=O)(Oc1ccccc1)[C@H](F)c1ccc2sc(C(=O)N[C@H]3CCC[C@H]4CC[C@@H](C(=O)N5CC(c6cccnc6)C5)N4C3=O)cc2c1 [Compound 464] | < 0.1
CCCOC(=O)[C@H](C)NP(=O)(Cc1ccc2sc(C(=O)N[C@H]3CCC[C@H]4CC[C@@H](C(=O)N[C@H]5CN(C(C)=O)C[C@@H]5F)N4C3=O)cc2c1)Oc1ccccc1 (stereo partly drawn) [Compound 308, propyl (((2-(((3S,6S,9aS)-3-(((3S,4S)-1-acetyl-4-fluoropyrrolidin-3-yl)carbamoyl)-5-oxooctahydro-1H-pyrrolo[1,2-a]azepin-6-yl)carbamoyl)benzo [b]thiophen-5-yl)methyl)(phenoxy)phosphoryl)-L-alaninate] | > 3
CCCOC(=O)[C@H](C)N[P@@](=O)(Oc1ccccc1)[C@H](F)c1ccc2sc(C(=O)N[C@H]3C[C@@H](C)C[C@H]4CC[C@@H](C(=O)N5CC(c6cnccc6C)C5)N4C3=O)cc2c1 (single isomer, unassigned) [Compound 1001] | < 0.1
O=C(SCCOP(=O)(OCCSC(=O)c1ccccc1)C(F)(F)c1ccc2sc(C(=O)N[C@H]3CCC[C@H]4CC[C@@H](C(=O)N5CC(c6cccnc6)C5)N4C3=O)cc2c1)c1ccccc1 [Compound 970, S,S′-((((difluoro(2-(((3S,6S,9aS)-5-oxo-3-(3-(pyridin-3-yl)azetidine-1-carbonyl)octahydro-1H-pyrrolo[1,2-a]azepin-6-yl)carbamoyl)benzo [b]thiophen-5-yl)methyl)-phosphoryl)bis(oxy))bis(ethane-2,1-diyl)) dibenzothioate] | < 0.1
CCCOC(=O)[C@H](C)NP(=O)(Cc1ccc2sc(C(=O)N[C@H]3CCC[C@H]4CC[C@@H](C(=O)N5CC(c6cccnc6)C5)N4C3=O)cc2c1)Oc1ccccc1 (stereo partly drawn) [Compound 250, propyl (((2-(((3S,6S,9aS)-5-oxo-3-(3-(pyridin-3-yl)azetidine-1-carbonyl)octahydro-1H-pyrrolo[1,2-a]azepin-6-yl)carbamoyl)benzo [b]thiophen-5-yl)methyl)(phenoxy)phosphoryl)-L-alaninate] | < 0.1
CCCOC(=O)[C@H](C)NP(=O)(Cc1ccc2sc(C(=O)N[C@H]3CCC[C@H]4CC[C@@H](C(=O)N5CC(c6c(F)ccnc6OC)C5)N4C3=O)cc2c1)Oc1ccccc1 (stereo partly drawn) [Compound 275, propyl (((2-(((3S,6S,9aS)-3-(3-(4-fluoro-2-methoxypyridin-3-yl)azetidine-1-carbonyl)-5-oxooctahydro-1H-pyrrolo[1,2-a]azepin-6-yl)carbamoyl)benzo [b]thiophen-5-yl)methyl)(phenoxy)phosphoryl)-L-alaninate] | > 3
COc1ccncc1C1CN(C(=O)[C@@H]2CC[C@@H]3CCC[C@H](NC(=O)c4cc5cc([C@@H](F)[P@@](=O)(N[C@@H](C)C(=O)OC(C)C)Oc6ccccc6)ccc5s4)C(=O)N32)C1 (single isomer, unassigned) [Compound 955] | < 0.1
COc1ccncc1C1CN(C(=O)[C@@H]2CC[C@@H]3CCC[C@H](NC(=O)c4cc5cc([C@@H](F)[P@@](=O)(N[C@@H](C)C(=O)OC(C)C)Oc6ccccc6)ccc5s4)C(=O)N32)C1 (single isomer, unassigned) [Compound 956] | < 0.1

Same assay, conditions: STAT3, PBMC, compound 3 hrs, then 10 ng/mL IL-6 for 10 min; Table 115

SMILES | IC50 [µM]
CCCOC(=O)[C@H](C)NP(=O)(Cc1ccc2sc(C(=O)N[C@H]3CCC[C@H]4CC[C@@H](C(=O)N5CC(c6cnc(C(F)F)cc6OC)C5)N4C3=O)cc2c1)Oc1ccccc1 (stereo partly drawn) [Compound 991, propyl (((2-(((3S,6S,9aS)-3-(3-(6-(difluoromethyl)-4-methoxypyridin-3-yl)azetidine-1-carbonyl)-5-oxooctahydro-1H-pyrrolo[1,2-a]azepin-6-yl)carbamoyl)benzo [b]thiophen-5-yl)methyl)(phenoxy)phosphoryl)-L-alaninate] | > 3
